Measured values from patent US20200165194A1, “ADDITIVE COMPOSITION FOR CULTURE MEDIUM, ADDITIVE COMPOUND FOR CULTURE MEDIUM, AND METHOD FOR CULTURE OF CELLS OR TISSUE USING SAME” (NISSAN CHEMICAL CORPORATION, priority 2017, published 2020).

Columns and labels:
[1] = system: mouse small intestinal organoid (Crypt); assay: Small intestine organoid formation in Matrigel (Experimental Example 4); format: cell-based; conditions: 5 μM, 7 days
Protocol: About 20 cm of the mouse small intestine was excised, and the adipose tissue and vascular tissue were removed on ice. The contents were sufficiently washed with PBS, cut open with scissors, and fragmented to about 2 mm. They were washed 20 times with 15 mL of PBS and the supernatant was removed. 25 mL of Gentle Cell Dissociation Reagent (manufactured by STEMCELL) was added, and the mixture was incubated at room temperature for 15 min while stirring at 20 rpm. The supernatant was removed, 10 mL of cold 0.1% BSA/PBS was added to the precipitate, and pipetting was performed three times. The supernatant was filtered with a 70 μm cell strainer (manufactured by BD Bioscience), and the filtrate was collected. Similarly, addition of 0.1% BSA/PBS to the remaining precipitate, pipetting, and filtration were repeated three times, and thus series of the four filtrates were prepared. Each filtrate was centrifuged at 290 g for 5 min at 4° C. After removing the supernatant, the cells were resuspended in 10 mL of cold 0.1% BSA/PBS and centrifuged at 200 g for 3 min at 4° C. The supernatant was removed, 10 mL of DMEM/F12 (manufactured by Wako Pure Chemical Industries, Ltd.) was added and the cells were suspended. 1 mL was separated and observed under a microscope. A filtrate having a sufficient intestinal fragment (Crypt) was selected, and the number of Crypt was counted using a hemocytometer. Cold Matrigel (registered trade mark) Matrix GFR(manufactured by Corning) in an equal amount to the cell suspension was added, mixed, and quickly dispensed into a 24-well plate warmed to 37° C. at 500 crypts/[…]/well. The plate was allowed to stand at 37° C. for 10 min to complete gelation. […] As a control, a well with no addition of the compound was prepared. After culturing for 7 days, the number and diameter of the formed small intestinal organoids were measured under a microscope, and the comparison results with no addition (control) are shown in the ninth table.

[2] = system: Canine kidney renal tubule epithelial cells (MDCK cells); assay: MDCK cells-1: Cyst formation on Matrigel, Cyst area by fluorescence microscope (Experimental Example 7); format: cell-based; conditions: 10 μM, 7 days
Protocol: Canine kidney renal tubule epithelial cells (MDCK cells, manufactured by DS PHARMA BIO MEDICAL) were precultured in EMEM medium containing 10% FBS and 1% NEAA. Cold Matrigel (registered trade mark) Matrix GFR (manufactured by Corning) was spread on a 24-well plate by 50 μL and fixed by incubating at 37° C. for 15 min. The aforementioned MDCK cells were suspended in a medium at a concentration of 20000 cells/mL, cold Matrigel (registered trade mark) Matrix GFR was added at […] and seeded at 1 mL/well. […] As a control (compound no-addition), DMSO was added at a final concentration of 0.1%. Seven days later, the cells were washed with PBS (1 mL/well), 4% paraformaldehyde/PBS (manufactured by Wako Pure Chemical Industries, Ltd.) was added (1 mL/well) and fixed at room temperature for 20 min. Thereafter, the supernatant was removed, IF buffer (0.2% Triton X-100 (manufactured by Sigma-Aldrich), 0.05% Tween 20 (manufactured by Sigma-Aldrich)-containing PBS) were added at 1 mL/well, stood for 30 min and removed. […] After washing 3 times every 5 min with IF buffer, VECTASHIELD Mounting Medium with DAPI (manufactured by Vector Laboratories) was added dropwise, and the cells were observed and analyzed with a fluorescence microscope (ArrayScan, manufactured by Thermo Fisher Scientific).

## CCC(=NNC(=O)C(CC)Nc1ccccc1)c1ccc(O)c(C)c1O (centres unmarked) [k-1:H-7]
[1]; control 130 ± 18
  organoid diameter (μm): 153 ± 21 μm
[1]; control = 1
  organoid number (relative value): 2.5
[1]; mouse small intestinal organoid culture
  organoid formation (in words): promotes organoid formation
[2]; Control as 100
  increase of the area per one Cyst: ≥ 20%
[2]; control = 100
  Cyst area (relative value): 124
